{
  "source": "patent US20170071976A1",
  "about": "“PHARMACEUTICAL SOLUTION HAVING ANTI-TUMOR EFFECT-ENHANCING AND TOXICITY-REDUCING EFFECT, AND PHARMACEUTICAL COMPOSITION COMPRISING SAME” (priority 2014, published 2017)",
  "test_system": "human lung cancer A549 cells",
  "experiment": "Cell invasion assayed by Transwell",
  "assay_type": "cell-based",
  "details": "invaded cells, control 183.0 ± 12.3",
  "description": "Cell lines: human colon cancer HCT-116 cells and human lung cancer A549 cells were provided by NANJING […] BIOTECH. CO., LTD. […] The cell suspension was centrifuged at 800 to 1,000 rpm for 5 min, and the supernatant was discarded; 1.4. A complete culture medium was added to the cell pellet which was well mixed by gentle pipetting, the cell suspension was transferred to a culture flask, and the cells were cultured by supplementing culture medium. 1. […] After incubation of cells with the test drugs for 24 hours, serum was removed, and the cells were incubated under starvation with an incomplete culture medium for 24 hours; 3. Matrigel was placed at 4° C. in advance to thaw overnight; 4. Thawed Matrigel was 1:1 diluted with the incomplete culture medium, 30 μl diluted Matrigel was added to the upper compartment of Transwell and incubated at 37° C. for 120 min to gel the Matrigel; 5. Cells from different groups were digested, counted, and then adjusted to a density of 1×10^5 cells/ml with the incomplete culture medium, 100 μl cell suspension was added to the upper compartment (small compartment) of Transwell, and 500 μl medium containing 20% FBS was added to the lower compartment of Transwell; 6. A 24-well cell culture plate was placed in an incubator at 37° C. and 5% CO2 to culture the cells for 24 hours; 7. […] The assay was repeated one more time.",
  "data": [
    {"smiles": "[2H]O[2H]", "note": "[Deuterium oxide]", "values": [
      {"measurement": "Number of cells (A549)", "setting": "deuterium oxide 1.8% (v/v)", "value": "74.3 ± 11.0"},
      {"measurement": "Number of cells (A549)", "setting": "deuterium oxide 7.5% (v/v)", "value": "43.0 ± 4.4"},
      {"measurement": "Number of cells (A549)", "setting": "deuterium oxide 15% (v/v)", "value": "29.3 ± 1.5"},
      {"measurement": "Number of cells (A549)", "setting": "deuterium oxide 30% (v/v)", "value": "22.0 ± 1.7"},
      {"measurement": "Number of cells (A549)", "setting": "deuterium oxide […] (v/v)", "value": "54.0 ± 2.0"}
    ]}
  ]
}
